We go through seven molecules from ChEMBL document CHEMBL1201862, “PubChem BioAssay data set” (2004).

What all share (experiment): NCI-60 cell line screen, 48 h
In test [1] the test system is PC-3.
Test [2] deals with MDA-MB-435.
Test [3] has as its system IGROV-1.
Test [4] has as its system HCT-15.
Test [5] deals with SNB-19.
Test [6] relates to SK-OV-3.
Test [7] has as its system LOX IMVI.
In test [8] the test system is NCI/ADR-RES.
Test [9] concerns OVCAR-8.
Test [10] concerns OVCAR-3.
The subject of test [11] is CCRF-CEM.
For test [12], the system named is 786-0.
Test [13] deals with MOLT-4.
For test [14], the system named is RXF 393.
The test system of test [15] is SK-MEL-28.
Test [16] has as its system TK-10.
The test system of test [17] is COLO 205.
Test [18] deals with CAKI-1.
In test [19] the test system is SNB-75.
For test [20], the system named is UO-31.

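These data come from cells grown in 96-well plates and exposed to compound for 48 hours at five concentrations. GI50 = concentration required for 50% inhibition of growth.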 The source made the active and inactive calls. No stated cut-off is given here; in the data, active = GI50 up to about 1.1 µM and inactive = higher. Square brackets hold non-standard residues; d marks the D form. Peptide text beside a SMILES is read from it. 2Nal = N[CH](Cc1ccc2ccccc2c1)C(=O)O A value given as a limit tells only on which side of the number the result lay.

With `C=CC(O)(CBr)CCC(Br)C(=C)C` (configuration not stated), the GI50 is > 10 µM (inactive) in test [1]; > 10 µM (inactive) in test [2]; > 10 µM (inactive) in test [3]; more than 10 µM in [4]; > 10 µM (inactive) in test [5]; > 10 µM (inactive) in test [6]. Moreover, the GI50 in test [7], in [8], in [9], in test [10], in test [11] and in test [12] was > 10 µM (inactive) in each case. The GI50 in test [13], in test [14], in test [15], in test [16], in test [17] and in test [18] was > 10 µM (inactive) in each case. For the same molecule, the GI50 in test [19] was > 10 µM (inactive).

Consider `Cc1cc(S(=O)(=O)/N=C(\NN)NCC(=O)NN)c(S)cc1Cl`, for which the GI50 in test [1] was > 10 µM (inactive); in test [2] it was > 10 µM (inactive); in test [3], > 10 µM (inactive); in test [4] it was more than 10 µM; in [5] it was > 10 µM (inactive); in test [6] it was > 10 µM (inactive). Further, the GI50 in [7], in test [8], in [9], in test [10], in test [11] and in test [12] was > 10 µM (inactive) in each case. In addition, the GI50 in [13], in test [14], in [15], in [16], in test [17] and in test [18] was > 10 µM (inactive) in each case. Also, the GI50 in test [19] was > 10 µM (inactive).

As for `COc1cc(C2SC(=N)Nc3c2c(C)nn3C(=O)c2ccc(Cl)cc2)cc(OC)c1OC` (configuration not stated), the GI50 in test [1] is > 10 µM (inactive); in test [2], > 10 µM (inactive); in test [3] it was > 10 µM (inactive); in [4], more than 10 µM; in test [5] it was > 10 µM (inactive); in test [6] it was > 10 µM (inactive). The GI50 in test [7], in [8], in [9], in test [10], in [11] and in [12] was > 10 µM (inactive) each time. Also, the GI50 in [13], in test [14], in [15], in [16], in test [17] and in [18] was > 10 µM (inactive) throughout. Besides, in test [19], the GI50 is > 10 µM (inactive).

With `O/N=C1/CC2(N3CCOCC3)C3CC/C(=N\O)C2CC1(Cc1ccccc1)C3` (configuration not stated), the GI50 is > 100 µM (inactive) in test [1]; > 100 µM (inactive) in test [2]; > 100 µM (inactive) in test [3]; more than 100 µM in [4]; > 100 µM (inactive) in [5]; > 100 µM (inactive) in [6]. Besides, the GI50 in [7], in test [8], in test [9], in test [10], in test [11] and in [20] was > 100 µM (inactive) in each case. Further, the GI50 in test [12] was > 100 µM (inactive); in test [13], > 100 µM (inactive); in test [14], 18.3 µM (inactive); in [15] it was > 100 µM (inactive); in [17], 82 µM (inactive); in [18], > 100 µM (inactive). In addition, in [19], the GI50 was 36.1 µM (inactive).

Regarding `C=CCOC1OC(CS(=O)(=O)O)C(OC(C)=O)C(OC(C)=O)C1OC(C)=O` (configuration not stated), the GI50 in test [1] was > 100 µM (inactive); in test [2], > 100 µM (inactive); in test [3], > 100 µM (inactive); in test [4], more than 100 µM; in test [5] it was > 100 µM (inactive); in test [6], > 100 µM (inactive). Further, the GI50 in test [7], in test [8], in test [9], in [10], in test [11] and in [20] was > 100 µM (inactive) in each case. Further, the GI50 in test [13], in test [14], in [15], in test [16], in test [17] and in test [18] was > 100 µM (inactive) each time. In [19], the GI50 is > 100 µM (inactive).

Regarding `O=c1c(C(c2cccc(C(c3c(O)oc4ccccc4c3=O)c3c(O)oc4ccccc4c3=O)c2)c2c(O)oc3ccccc3c2=O)c(O)oc2ccccc12`, the GI50 in test [1] is 37.9 µM (inactive); in [2] it was 86.9 µM (inactive); in [3], 34 µM (inactive); in [4], 63.8 µM; in [6] it was 18.2 µM (inactive); in test [7], 18.7 µM (inactive). For the same molecule, the GI50 was > 100 µM (inactive) in test [8]; 21.1 µM (inactive) in [9]; 35.3 µM (inactive) in test [10]; 32.4 µM (inactive) in test [11]; 17.7 µM (inactive) in test [12]; 29.2 µM (inactive) in test [13]. Also, the GI50 in test [14] is > 100 µM (inactive); in test [15], > 100 µM (inactive); in test [16] it was > 100 µM (inactive); in test [17], 86.3 µM (inactive); in test [18], 16.9 µM (inactive); in test [19] it was 3.73 µM (inactive).

Consider `CC(C)C(NC(=O)C(CCCCN)NC(=O)C(Cc1c[nH]c2ccccc12)NC(=O)C(Cc1ccc(O)cc1)NC(=O)C(CS)NC(=O)C(N)Cc1ccc2ccccc2c1)C(=O)NC(CS)C(=O)NC(C(N)=O)C(C)O` (configuration not stated) (H-[2Nal]CYWKVCT-NH2; configuration not given here), for which the GI50 in test [1] was > 12.5 µM (inactive); in test [2] it was > 12.5 µM (inactive); in test [3] it was > 12.5 µM (inactive); in [4], more than 12.5 µM; in test [5], > 100 µM (inactive); in test [6], > 12.5 µM (inactive). Further, the GI50 in [7], in [8], in [9], in [10], in test [11] and in test [20] was > 12.5 µM (inactive) throughout. Moreover, the GI50 in test [12] is > 12.5 µM (inactive); in test [13], > 12.5 µM (inactive); in [14] it was > 12.5 µM (inactive); in test [15] it was > 100 µM (inactive); in test [17], > 12.5 µM (inactive); in test [18], > 12.5 µM (inactive). In addition, the GI50 in test [19] is > 100 µM (inactive).
